ChEMBL document CHEMBL1201862, “PubChem BioAssay data set” (2004)
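Test compounds were applied to cells in 96-well plates for 48 hours at 5 doses. Here, GI50 denotes the concentration required for 50% inhibition of growth.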 Active and inactive are the calls of the source. No stated cut-off is given here; in the data, active = GI50 up to about 1.1 µM and inactive = higher.

What was measured:
Assay in all cases: inhibition of tumour cell growth, NCI panel, 48 h
KM-20L2 = tested on: KM-20L2
SF-268 = tested on: SF-268
K562 = tested on: K562
LOX IMVI = tested on: LOX IMVI
T47D = tested on: T47D
IGROV-1 = tested on: IGROV-1
SNB-75 = tested on: SNB-75
SF-539 = tested on: SF-539
Hs-578T = tested on: Hs-578T
OVCAR-5 = tested on: OVCAR-5
DMS-273 = tested on: DMS-273
SK-MEL-5 = tested on: SK-MEL-5
HT-29 = tested on: HT-29
SK-OV-3 = tested on: SK-OV-3
SNB-78 = tested on: SNB-78
NCI-H460 = tested on: NCI-H460
OVCAR-8 = tested on: OVCAR-8
DU-145 = tested on: DU-145
RXF 393 = tested on: RXF 393
SK-MEL-2 = tested on: SK-MEL-2
SW-620 = tested on: SW-620
HOP-18 = tested on: HOP-18
KM12 = tested on: KM12
Malme-3M = tested on: Malme-3M
ACHN = tested on: ACHN
XF498 = tested on: XF498
MDA-MB-435 = tested on: MDA-MB-435
SNB-19 = tested on: SNB-19
HL-60 = tested on: HL-60
CCRF-CEM = tested on: CCRF-CEM
786-0 = tested on: 786-0
HOP-92 = tested on: HOP-92
PC-3 = tested on: PC-3
DMS-114 = tested on: DMS-114
M14 = tested on: M14
A498 = tested on: A498
NCI-H23 = tested on: NCI-H23
SK-MEL-28 = tested on: SK-MEL-28
MDA-MB-231 = tested on: MDA-MB-231
UACC-62 = tested on: UACC-62
TK-10 = tested on: TK-10
M19-MEL = tested on: M19-MEL
UACC-257 = tested on: UACC-257
A549 = tested on: A549
LXFL 529 = tested on: LXFL 529
DLD-1 = tested on: DLD-1
OVCAR-4 = tested on: OVCAR-4
MOLT-4 = tested on: MOLT-4
HCT-15 = tested on: HCT-15
SN12C = tested on: SN12C
U-251 = tested on: U-251
HCC 2998 = tested on: HCC 2998
SF-295 = tested on: SF-295
UO-31 = tested on: UO-31
HCT-116 = tested on: HCT-116
HOP-62 = tested on: HOP-62
COLO 205 = tested on: COLO 205
NCI-H522 = tested on: NCI-H522
RPMI-8226 = tested on: RPMI-8226
EKVX = tested on: EKVX
CAKI-1 = tested on: CAKI-1
NCI-H226 = tested on: NCI-H226
OVCAR-3 = tested on: OVCAR-3

In the case of `COc1ccc2cc3[n+](cc2c1OC)CCc1cc2c(cc1-3)OCO2` [BERBERINE CHLORIDE], the GI50 (KM-20L2) was 28.2 µM (inactive), the GI50 (SF-268) was 5.2 µM (inactive) and the GI50 (K562) was 16.6 µM (inactive). For the same compound, the GI50 (LOX IMVI) was 77.1 µM (inactive), the GI50 (T47D) was 10.3 µM (inactive) and the GI50 (IGROV-1) was 40.6 µM (inactive). For the same compound, the GI50 (SNB-75) was 36.5 µM (inactive), the GI50 (SF-539) was 35.3 µM (inactive) and the GI50 (Hs-578T) was 10 µM (inactive). The GI50 (OVCAR-5) was 58.3 µM (inactive), the GI50 (DMS-273) was 10.3 µM (inactive) and the GI50 (SK-MEL-5) was 4.95 µM (inactive). The GI50 (HT-29) was 31 µM (inactive), the GI50 (SK-OV-3) was 84.5 µM (inactive) and the GI50 (SNB-78) was 53.8 µM (inactive). For the same compound, the GI50 (NCI-H460) was 12.2 µM (inactive), the GI50 (OVCAR-8) was 12.7 µM (inactive) and the GI50 (DU-145) was > 44.5 µM (inactive). For the same compound, the GI50 (RXF 393) was 68.5 µM (inactive), the GI50 (SK-MEL-2) was 25.3 µM (inactive) and the GI50 (SW-620) was 40.6 µM (inactive). For the same compound, the GI50 (HOP-18) was 106 µM (inactive), the GI50 (KM12) was 7.71 µM (inactive) and the GI50 (Malme-3M) was 6.68 µM (inactive). The GI50 (ACHN) was > 100 µM (inactive), the GI50 (XF498) was 7.82 µM (inactive) and the GI50 (MDA-MB-435) was 12.8 µM (inactive). The GI50 (SNB-19) was 8.38 µM (inactive), the GI50 (HL-60) was 13.6 µM (inactive) and the GI50 (CCRF-CEM) was 13.2 µM (inactive). For the same compound, the GI50 (786-0) was > 49.4 µM (inactive), the GI50 (HOP-92) was 36.7 µM (inactive) and the GI50 (PC-3) was 26.9 µM (inactive). For the same compound, the GI50 (DMS-114) was 4.23 µM (inactive), the GI50 (M14) was 22.8 µM (inactive) and the GI50 (A498) was 95.9 µM (inactive). The GI50 (NCI-H23) was 7.35 µM (inactive), the GI50 (SK-MEL-28) was 22.2 µM (inactive) and the GI50 (MDA-MB-231) was 36.1 µM (inactive). The GI50 (UACC-62) was 29.9 µM (inactive), the GI50 (TK-10) was > 100 µM (inactive) and the GI50 (M19-MEL) was 5.56 µM (inactive).

With `CC1=N/C(=C\c2c(O)ccc3ccccc23)C(=O)O1` the GI50 (UACC-257) was > 100 µM (inactive), the GI50 (KM-20L2) was > 100 µM (inactive) and the GI50 (A549) was > 100 µM (inactive). For the same compound, the GI50 (SF-268) was > 100 µM (inactive), the GI50 (LXFL 529) was > 100 µM (inactive) and the GI50 (K562) was > 100 µM (inactive). For the same compound, the GI50 (IGROV-1) was > 100 µM (inactive), the GI50 (DLD-1) was > 100 µM (inactive) and the GI50 (OVCAR-4) was > 100 µM (inactive). For the same compound, the GI50 (SNB-75) was 0.849 µM (active), the GI50 (SF-539) was > 100 µM (inactive) and the GI50 (MOLT-4) was > 100 µM (inactive). The GI50 (HCT-15) was > 100 µM, the GI50 (OVCAR-5) was > 100 µM (inactive) and the GI50 (SK-MEL-5) was > 100 µM (inactive). For the same compound, the GI50 (HT-29) was > 100 µM (inactive), the GI50 (SNB-78) was > 100 µM (inactive) and the GI50 (NCI-H460) was > 100 µM (inactive). For the same compound, the GI50 (SN12C) was > 100 µM (inactive), the GI50 (OVCAR-8) was > 100 µM (inactive) and the GI50 (U-251) was > 100 µM (inactive). For the same compound, the GI50 (HCC 2998) was > 100 µM (inactive), the GI50 (RXF 393) was > 100 µM (inactive) and the GI50 (SK-MEL-2) was > 100 µM (inactive). The GI50 (SW-620) was > 100 µM (inactive), the GI50 (HOP-18) was > 100 µM (inactive) and the GI50 (KM12) was > 100 µM (inactive). For the same compound, the GI50 (SF-295) was > 100 µM (inactive), the GI50 (Malme-3M) was > 100 µM (inactive) and the GI50 (UO-31) was > 100 µM (inactive). The GI50 (ACHN) was > 100 µM (inactive), the GI50 (HCT-116) was > 100 µM (inactive) and the GI50 (SNB-19) was > 100 µM (inactive). For the same compound, the GI50 (HL-60) was > 100 µM (inactive), the GI50 (HOP-62) was > 100 µM (inactive) and the GI50 (CCRF-CEM) was > 100 µM (inactive). The GI50 (786-0) was > 100 µM (inactive), the GI50 (HOP-92) was > 100 µM (inactive) and the GI50 (DMS-114) was > 100 µM (inactive). The GI50 (COLO 205) was > 100 µM (inactive), the GI50 (M14) was > 100 µM (inactive) and the GI50 (A498) was > 100 µM (inactive). The GI50 (NCI-H23) was > 100 µM (inactive), the GI50 (NCI-H522) was > 100 µM (inactive) and the GI50 (SK-MEL-28) was > 100 µM (inactive). For the same compound, the GI50 (UACC-62) was > 100 µM (inactive), the GI50 (RPMI-8226) was > 100 µM (inactive) and the GI50 (M19-MEL) was > 100 µM (inactive). The GI50 (EKVX) was > 100 µM (inactive).

In the case of `Cc1nc(-n2nc(-c3ccccc3)cc2-c2ccccc2)sc1C(=O)/C=C/c1ccc(Cl)cc1`, the GI50 (UACC-257) was 20.1 µM (inactive), the GI50 (KM-20L2) was 24.4 µM (inactive) and the GI50 (A549) was 19.5 µM (inactive). For the same compound, the GI50 (SF-268) was 29 µM (inactive), the GI50 (K562) was > 10 µM (inactive) and the GI50 (LOX IMVI) was 13.9 µM (inactive). For the same compound, the GI50 (IGROV-1) was 27.7 µM (inactive), the GI50 (DLD-1) was 13.2 µM (inactive) and the GI50 (SNB-75) was 6.1 µM (inactive). For the same compound, the GI50 (SF-539) was 14.3 µM (inactive), the GI50 (MOLT-4) was 11.7 µM (inactive) and the GI50 (HCT-15) was 22.2 µM. For the same compound, the GI50 (OVCAR-5) was 34.8 µM (inactive), the GI50 (DMS-273) was 28.5 µM (inactive) and the GI50 (SK-MEL-5) was 13.2 µM (inactive). The GI50 (HT-29) was 14.4 µM (inactive), the GI50 (SK-OV-3) was 28.1 µM (inactive) and the GI50 (SNB-78) was 46 µM (inactive). The GI50 (NCI-H460) was 25.2 µM (inactive), the GI50 (CAKI-1) was 17.5 µM (inactive) and the GI50 (NCI-H226) was 16 µM (inactive). For the same compound, the GI50 (SN12C) was 25.6 µM (inactive), the GI50 (OVCAR-8) was 24.8 µM (inactive) and the GI50 (U-251) was 15.8 µM (inactive). For the same compound, the GI50 (HCC 2998) was 16.4 µM (inactive), the GI50 (RXF 393) was 12.7 µM (inactive) and the GI50 (SK-MEL-2) was 19.6 µM (inactive). The GI50 (SW-620) was 21.5 µM (inactive), the GI50 (HOP-18) was 14.4 µM (inactive) and the GI50 (KM12) was 11.7 µM (inactive). For the same compound, the GI50 (SF-295) was 15.3 µM (inactive), the GI50 (Malme-3M) was 22.4 µM (inactive) and the GI50 (UO-31) was 9.06 µM (inactive). The GI50 (ACHN) was 20.7 µM (inactive), the GI50 (HL-60) was 14.5 µM (inactive) and the GI50 (HOP-62) was 13.3 µM (inactive). The GI50 (CCRF-CEM) was 17.3 µM (inactive), the GI50 (786-0) was 14.4 µM (inactive) and the GI50 (HOP-92) was 18.4 µM (inactive). The GI50 (DMS-114) was 11.4 µM (inactive), the GI50 (COLO 205) was 16.5 µM (inactive) and the GI50 (A498) was 23.2 µM (inactive). The GI50 (NCI-H23) was 16.3 µM (inactive), the GI50 (OVCAR-3) was 15.9 µM (inactive) and the GI50 (NCI-H522) was 11.7 µM (inactive). The GI50 (SK-MEL-28) was 16.9 µM (inactive), the GI50 (UACC-62) was 14.1 µM (inactive) and the GI50 (TK-10) was 38.1 µM (inactive). The GI50 (RPMI-8226) was 5.66 µM (inactive), the GI50 (M19-MEL) was 18.4 µM (inactive) and the GI50 (EKVX) was 13.4 µM (inactive).
